# Laboratory results from US8765773B2, “Substituted hydroxamic acids and uses thereof” (Millennium Pharmaceuticals, Inc., priority 2010, dated 2014).
# Target: T1, purified human HDAC6 (Homo sapiens, UniProt Q9UBN7)
# T1 construct: purchased BPS Bioscience 5006
# T1 sequence (Q9UBN7 1-1215): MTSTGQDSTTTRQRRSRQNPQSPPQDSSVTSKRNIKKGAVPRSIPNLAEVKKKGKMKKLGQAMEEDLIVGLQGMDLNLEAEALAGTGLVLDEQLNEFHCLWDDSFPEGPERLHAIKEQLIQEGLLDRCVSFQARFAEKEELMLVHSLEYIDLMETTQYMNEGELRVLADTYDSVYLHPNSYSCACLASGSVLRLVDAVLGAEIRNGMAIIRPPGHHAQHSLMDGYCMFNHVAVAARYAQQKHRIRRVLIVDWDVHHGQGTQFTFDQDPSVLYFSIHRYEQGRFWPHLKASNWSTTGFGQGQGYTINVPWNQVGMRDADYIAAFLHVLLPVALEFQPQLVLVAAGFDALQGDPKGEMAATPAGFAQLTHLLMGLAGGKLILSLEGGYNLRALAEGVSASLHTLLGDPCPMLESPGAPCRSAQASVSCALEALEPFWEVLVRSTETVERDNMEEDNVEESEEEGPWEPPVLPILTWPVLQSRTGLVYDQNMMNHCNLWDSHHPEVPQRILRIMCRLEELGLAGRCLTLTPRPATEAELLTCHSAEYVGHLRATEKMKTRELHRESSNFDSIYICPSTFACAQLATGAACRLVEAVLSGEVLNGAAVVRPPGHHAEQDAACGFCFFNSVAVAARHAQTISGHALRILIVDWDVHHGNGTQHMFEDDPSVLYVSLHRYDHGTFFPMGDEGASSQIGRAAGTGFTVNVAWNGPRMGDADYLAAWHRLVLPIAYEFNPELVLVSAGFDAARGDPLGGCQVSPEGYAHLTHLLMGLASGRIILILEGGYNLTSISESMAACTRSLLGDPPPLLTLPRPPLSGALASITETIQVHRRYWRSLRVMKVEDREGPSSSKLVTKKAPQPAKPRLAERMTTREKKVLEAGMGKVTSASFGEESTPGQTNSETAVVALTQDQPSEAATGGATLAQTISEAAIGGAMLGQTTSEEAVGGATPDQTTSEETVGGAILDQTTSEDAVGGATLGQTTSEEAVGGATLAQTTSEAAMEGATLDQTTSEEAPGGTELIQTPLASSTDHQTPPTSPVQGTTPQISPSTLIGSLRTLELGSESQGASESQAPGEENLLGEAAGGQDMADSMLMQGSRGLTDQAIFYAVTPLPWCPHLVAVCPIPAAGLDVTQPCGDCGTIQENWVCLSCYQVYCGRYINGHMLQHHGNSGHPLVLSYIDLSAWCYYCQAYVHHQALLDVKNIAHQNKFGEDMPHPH
# Assay: HDAC6 Enzyme Assay
# Type: biochemical
# Settings: compound concentration 0.37 μM, read-out: Percent Inhibition
# Procedure, shortened: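 Readout is AMC fluorescence (Ex 340 nm, Em 460 nm) after trypsin cleavage of the deacetylated Ac-Arg-Gly-Lys(Ac)-AMC product. Reaction: purified human HDAC6, compound or vehicle, 1 hour, 30° C, quenched by trichostatin A. Single-concentration percent inhibition or IC50 calculated versus DMSO-treated samples.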
row,SMILES,inhibition at 0.37 µM [%]
1,"CN(C)c1ccc(-c2nc3cc(C(=O)NO)ccc3c(=O)n2Cc2ccc(C(F)(F)F)cc2)cc1 [Compound I-274, 2-[4-(dimethylamino)phenyl]-N-hydroxy-4-oxo-3-[4-(trifluoromethyl)benzyl]-3,4-dihydroquinazoline-7-carboxamide]",78.8
2,"COc1cccc(-c2cccc(Cn3cnc4ccc(C(=O)NO)cc4c3=O)c2)c1 [Compound I-281, N-hydroxy-3-[(3′-methoxybiphenyl-3-yl)methyl]-4-oxo-3,4-dihydroquinazoline-6-carboxamide]",90.8

# Same assay, conditions: compound concentration 0.412 μM, read-out: Percent Inhibition
row,SMILES,inhibition at 0.412 µM [%]
1,"O=C(NO)c1ccc2ccn(Cc3nc4ccccc4s3)c(=O)c2c1 [Compound I-272, 2-(1,3-benzothiazol-2-ylmethyl)-N-hydroxy-1-oxo-1,2-dihydroisoquinoline-7-carboxamide]",97.5
2,"O=C(Cn1cnc2ccc(C(=O)NO)cc2c1=O)c1ccc(N2CCCC2)cc1 [Compound I-273, N-hydroxy-4-oxo-3-[2-oxo-2-(4-pyrrolidin-1-ylphenyl)ethyl]-3,4-dihydroquinazoline-6-carboxamide]",85.1
3,"CC(C)CCCn1cnc2cc(C(=O)NO)ccc2c1=O [Compound I-275, N-hydroxy-3-(4-methylpentyl)-4-oxo-3,4-dihydroquinazoline-7-carboxamide]",94.9
4,"CCOCCn1cnc2cc(C(=O)NO)ccc2c1=O [Compound I-276, 3-(2-ethoxyethyl)-N-hydroxy-4-oxo-3,4-dihydroquinazoline-7-carboxamide]",88.1
5,"O=C(NO)c1ccc2ccn(CCN3CCCCC3)c(=O)c2c1 [Compound I-277, N-hydroxy-1-oxo-2-(2-piperidin-1-ylethyl)-1,2-dihydroisoquinoline-7-carboxamide]",71.2
6,"O=C(NO)c1ccc2c(=O)[nH]c(C(=O)NC3CCNCC3)nc2c1 [Compound I-278, N^7-hydroxy-4-oxo-N^2-piperidin-4-yl-3,4-dihydroquinazoline-2,7-dicarboxamide]",26.2
7,"O=C(NO)c1ccc2ccn(Cc3ccccn3)c(=O)c2c1 [Compound I-279, N-hydroxy-1-oxo-2-(pyridin-2-ylmethyl)-1,2-dihydroisoquinoline-7-carboxamide]",87.9
8,"O=C(NO)c1ccc2c(=O)n(-c3ccc(Cl)cc3)c(=O)[nH]c2c1 [Compound I-280, 3-(4-chlorophenyl)-N-hydroxy-2,4-dioxo-1,2,3,4-tetrahydroquinazoline-7-carboxamide]",20.9
9,"O=C(NO)c1ccc2ccn(CCOc3cccc(C(F)(F)F)c3)c(=O)c2c1 [Compound I-282, N-hydroxy-1-oxo-2-{2-[3-(trifluoromethyl)phenoxy]ethyl}-1,2-dihydroisoquinoline-7-carboxamide]",95.5
10,"O=C(NO)c1ccc2nc[nH]c(=O)c2c1 [Compound I-283, N-hydroxy-4-oxo-3,4-dihydroquinazoline-6-carboxamide]",63.3
11,"O=C(NO)c1ccc2c(=O)[nH]cnc2c1 [Compound I-284, N-hydroxy-4-oxo-3,4-dihydroquinazoline-7-carboxamide]",76.8
12,"COc1ccc(CCn2ccc3ccc(C(=O)NO)cc3c2=O)cc1 [Compound I-285, N-hydroxy-2-[2-(4-methoxyphenyl)ethyl]-1-oxo-1,2-dihydroisoquinoline-7-carboxamide]",95.3
13,"Cn1c(=O)[nH]c2cc(C(=O)NO)ccc2c1=O [Compound I-286, N-hydroxy-3-methyl-2,4-dioxo-1,2,3,4-tetrahydroquinazoline-7-carboxamide]",21.2
14,"Cn1ccc2ccc(C(=O)NO)cc2c1=O [Compound I-287, N-hydroxy-2-methyl-1-oxo-1,2-dihydroisoquinoline-7-carboxamide]",67.6
15,"CC(C)(C)c1ccc(Cn2cnc3ccc(C(=O)NO)cc3c2=O)cc1 [Compound I-288, 3-(4-tert-butylbenzyl)-N-hydroxy-4-oxo-3,4-dihydroquinazoline-6-carboxamide]",94.9
